Details: basic group

| SMILES | pKa |
| --- | --- |
| c1nc[nH]n1 | 2.5 |
| CC#C[C@H](C)Oc1cc(N)c(Cl)cc1C(=O)N[C@@H]1C[C@H]2CC[C@@H](C1)N2C | 9.95 |
| Cc1cncc(C)c1 | 6.15 |
| C[C@H]1CC[C@H]2[C@H](C)CC[C@@H](C(=O)[O-])N2C1 | 10.8 |
| Nc1nccs1 | 5.44 |
| CC1CCNCC1 | 10.9 |
| COc1cc(S(C)=O)ccc1-c1nc2ncc(N)cc2[nH]1 (stereo unspecified) | 3.9 |
| O=C1[C@@H]2C[C@@H](CN3CCCC[C@@H]23)[C@H]2CCCCN12 | 7.7 |
| CN(C)CC(C)(C)CN | 10.1 |
| Brc1ccc(C2NCCS2)cc1 (stereo unspecified) | 5.05 |
| COc1ccc(N)cc1Br | 4.09 |
| c1ccc(C(OCCN2CCCCC2)c2ccccc2)cc1 | 8.03 |
| C[C@@H]1N[C@@H]1C | 5.34 |
| CCCCC(CC)CNc1ncnc2[nH]ncc12 (stereo unspecified) | 4.6 |
| Cc1cnc2c(C)ccc([N+](=O)[O-])c2c1NCCC[NH+](C)C | 6.1 |
| O=C([O-])C#CCN1CCOCC1 | 5.57 |
| CCCCCCCCCCCCCCCCCCN(CC(C)O)CC(C)O (stereo unspecified) | 9.4 |
| C[C@H]1CCN2CCC[C@@H]12 | 11.4 |
| NCc1cccc(S(N)(=O)=O)c1 | 8.55 |
| N[C@@H](CCC(=O)[O-])C(=O)[O-] | 9.33 |
| Nc1c(C(=O)[O-])ncn1[C@H]1O[C@@H](CO)[C@H](O)[C@@H]1O | 5.9 |
| C[NH+](C)CCCNc1ccnc2ccc([N+](=O)[O-])cc12 | 6.99 |
| Nc1ccnc(-c2cc(Cl)ccn2)c1 | 7.4 |
| OCCCCCc1ccccn1 | 5.93 |
| C/N=C1/CCCCC1C (stereo unspecified) | 9.47 |
| CCC(C)(N)CC | 10.9 |
| CC(C)N1CCC(NN)CC1 | 9.65 |
| CN(C)C1CC(C)(C)[NH2+]C(C)(C)C1 | 7.67 |

| SMILES | pKa |
| --- | --- |
| CC(C)C(N)C(=O)O (stereo unspecified) | 9.58 |
| CCN1CCCC=C1C | 11.6 |
| N#CC(C#N)=NNc1ccccc1Cl | -0.77 |
| N#Cc1cccc(N)c1 | 2.83 |
| N[C@H]1C[C@H]2CCCC[C@@H]2C[C@@H]1N | 10.1 |
| CN(C)CCCCNC(=O)/C=N/[O-] | 10.1 |
| CN(C)CCSCCN(C)C | 9.1 |
| C=CCN(CC=C)CCCNC(=O)/C=N/[O-] | 9.34 |
| Nc1ccc(-c2ccc(N)cc2)cc1 | 4.96 |
| CN1CC1 | 7.86 |
| CC[NH+](CC)CCCCCCCC(C)Nc1c2ccc(Cl)cc2nc2ccc(OC)cc12 (stereo unspecified) | 8 |
| COCCN(C)C | 8.96 |
| CC(C)[C@H]1CN[C@H](C(=O)[O-])[C@H]1CC(=O)[O-] | 10.6 |
| [O-]c1ncc2[nH]cnc2n1 | 8.43 |
| COc1ccc(S(=O)(=O)CCN2CCOCC2)c(OC)c1OC | 4.89 |
| Cc1ccc2c(c1)C(CC[NH3+])CN2 (stereo unspecified) | 4.1 |
| [NH3+]CCCCc1cccnc1 | 5.52 |
| CCN(CC)CCCNS(=O)(=O)c1ccc(OC)c(OC)c1OC | 9.54 |
| CCCCCC/N=C/c1c(C)cnc(C)c1O | 6.22 |
| CNCCC[NH2+]C | 8.68 |
| [O-]c1nc([O-])c2[nH]cnc2n1 | 11.1 |
| CC/N=C1\C=C(NCC)CC(C)(C)C1 | 12.1 |
| CCC(=O)OC(C)CN(C)C (stereo unspecified) | 8.26 |
| Cc1cc(-n2nc(C)cc2C)[nH]n1 | 2.23 |
| Nc1nc[nH+]c2c1ncn2CCOCP(=O)(O)O | -0.35 |
| CN1CC(O[Si](C)(C)C)C1 | 9.1 |
| Oc1ccc(F)cc1CN1CCOCC1 | 6.78 |

The remaining lines, values ahead:

| pKa | SMILES |
| --- | --- |
| 6.01 | Cc1cnc2cccc([N+](=O)[O-])c2c1NCCC[NH+](C)C |
| 9.44 | CCN(CC)Cc1ccccc1 |
| 8.3 | CCCN(CCC)Cc1ccccc1O |
| 9.31 | N[C@@H](Cc1c[nH]c2ccccc12)C(=O)[O-] |
| 6.32 | O=C([O-])C(NCC[NH2+]C(C(=O)[O-])c1ccccc1O)c1ccccc1O (stereo unspecified) |
| 8.19 | CCN(CC)Cc1cccc(C)c1O |
| 6.84 | Nc1cnnc2ccccc12 |
| -2.4 | Cc1cc(C)n(-c2cccc[nH+]2)n1 |
| -0.82 | Cc1cccc(C)c1NN=C(C#N)C#N |
| 4.41 | c1ccc(-c2nc3ccccc3[nH]2)nc1 |
| 6.67 | OCCNC1CC[NH+](Cc2ccccc2)CC1 |
| 2.94 | [NH3+]C(CC(=O)[O-])c1ccccn1 (stereo unspecified) |
| 2.1 | Cc1cccc(N)c1-c1c(C)cccc1[NH3+] |
| 6.39 | O=C(CCN1CCOCC1)C(c1ccccc1)c1ccccc1 |
| 7.5 | CC(O)CN(Cc1ccccc1)CC(C)O (stereo unspecified) |
| 8.11 | SCCNCCc1ccccc1 |

| pKa | SMILES |
| --- | --- |
| 6.79 | Cc1ccc(C(=N)c2ccccc2)c(C)c1 |
| 2.6 | CN(C)c1cccc([N+](C)(C)C)c1 |
| 6.7 | Nc1cccc(-c2cccc(N)n2)n1 |
| 4.9 | CCOCCn1c(N2CCC[NH+](CCCCn3cccn3)CC2)nc2ccccc21 |
| 1.5 | COc1cc(C)n(-c2ccccc2)n1 |
| 1.87 | Nc1cccc([I+]c2ccccc2)c1 |
| -0.22 | Cc1c(O)c(=O)n(-c2ccccc2)n1C |
| 6.77 | C[NH+](C)CCCNc1ccnc2cc([N+](=O)[O-])ccc12 |
| 8.55 | CN(C)Cc1cc(C(C)(C)C)ccc1O |
| 0.5 | N#Cc1cc(-c2ccccc2)nnc1NCC[NH+]1CCOCC1 |
| 4.58 | Cc1cc2ncn([C@H]3OC[C@@H](O)[C@@H](O)[C@@H]3O)c2cc1C |
| 8.04 | CCCCNCC(=O)Nc1c(C)cccc1C |
| -2.9 | Cc1cc(C)n(-c2cc(C)n(C)[nH+]2)n1 |
| 3.98 | COc1cc(C(N)=O)ccc1-c1nc2nn(C)cc2[nH]1 |
| 3.65 | Oc1ccc2nnccc2c1 |

From the pKa sets of Baltruschat and Czodrowski (2020)
